Results from publication PMC9699089 (Pathogens, 2022).
Like-named read-outs stand apart in the source and are kept apart here.

Columns and labels:
[1] = system: Plasmodium telomeric sequence FPf8T G-quadruplex; assay: FRET melting assay, FPf8T; format: binding, Plasmodium falciparum; conditions: tested at 1 μM, oligonucleotide 0.2 μM, K+ conditions
[2] = system: Plasmodium falciparum CQ-resistant strain W2; assay: In vitro antiplasmodial activity, SYBR Green I fluorescence-based method, strain W2; format: cell-based; conditions: read-out: P. falciparum Strains IC50 Values W2
Description: (§1) The in vitro antiplasmodial activities were tested over concentrations ranging from 39 nM to 40 µM against culture-adapted Plasmodium falciparum reference strains 3D7 and W2. […] These two strains are obtained from the collection of the National Museum of Natural History (Paris, France). The parasites were cultivated in RPMI medium (Sigma Aldrich, Lyon, France) supplemented with 0.5% Albumax I (Life Technologies Corporation, Paisley, UK), hypoxanthine (Sigma Aldrich), and gentamicin (Sigma Aldrich) with human erythrocytes and were incubated at 37 °C in a candle jar, as described previously. The P. falciparum drug susceptibility test was carried out in 96-well flat bottom sterile plates in a final volume of 250 µL. After 48 h incubation period with the drugs, quantities of DNA in treated and control cultures of parasites in human erythrocytes were quantified using the SYBR Green I (Sigma Aldrich) fluorescence-based method. Briefly, after incubation, plates were frozen at -20 °C until use. Plates were then thawed for 2 h at room temperature, and 100 µL of each homogenized culture was transferred to a well of a 96-well flat bottom sterile black plate (Nunc, Inc.) that contained 100 µL of the SYBR Green I lysis buffer (2xSYBR Green, 20 mM Tris base pH 7.5, 5 mM EDTA, 0.008% w/v saponin, 0.08% w/v Triton X-100). […] Plates were incubated for 1 h at room temperature and then read on a fluorescence plate reader (Tecan, Austria) using excitation and emission wavelengths of 485 and 535 nm, respectively.

[3] = system: Plasmodium falciparum CQ-sensitive strain 3D7; assay: In vitro antiplasmodial activity, SYBR Green I fluorescence-based method, strain 3D7; format: cell-based; conditions: read-out: P. falciparum Strains IC50 Values 3D7
Description: as §1

[4] = system: Plasmodium telomeric sequence FPf1T G-quadruplex; assay: FRET melting assay, FPf1T; format: binding, Plasmodium falciparum; conditions: tested at 1 μM, oligonucleotide 0.2 μM, K+ conditions
[5] = system: human telomeric sequence F21T G-quadruplex; assay: FRET melting assay, F21T; format: binding; conditions: tested at 1 μM, oligonucleotide 0.2 μM, K+ conditions
[6] = system: FPf1T (DNA, G4) GGGTTTAGGGTTTAGGGTTTAGGG; assay: FRET melting; conditions: 10 mM KCl, 90 mM LiCl; 10 mM lithium cacodylate pH 7.2; 0.2 µM oligonucleotide, 2 µM compound
[7] = system: 24TTG (DNA, G4) TTGGGTTAGGGTTAGGGTTAGGGA; assay: native ESI-MS; conditions: 1 mM KCl, 100 mM TMAA, 10 µM oligonucleotide; for Kd1: 20 µM ligand
[8] = system: Pf1 (DNA, G4) GGGTTTAGGGTTTAGGGTTTAGGG; assay: native ESI-MS; conditions: 1 mM KCl, 100 mM TMAA, 10 µM oligonucleotide; for Kd1: 20 µM ligand
[9] = system: FPf8T (DNA, G4) GGGTTCAGGGTTCAGGGTTCAGGG; assay: FRET melting; conditions: 10 mM KCl, 90 mM LiCl; 10 mM lithium cacodylate pH 7.2; 0.2 µM oligonucleotide, 2 µM compound
[10] = system: Pf8 (DNA, G4) GGGTTCAGGGTTCAGGGTTCAGGG; assay: native ESI-MS; conditions: 1 mM KCl, 100 mM TMAA, 10 µM oligonucleotide, 20 µM ligand
[11] = system: DK66 (DNA, duplex) CGCGAATTCGCG; assay: native ESI-MS; conditions: 1 mM KCl; 100 mM TMAA; 10 µM oligonucleotide; no binding detected at 20 µM ligand
[12] = system: F21T (DNA, G4) GGGTTAGGGTTAGGGTTAGGG; assay: FRET melting; conditions: 10 mM KCl, 90 mM LiCl; 10 mM lithium cacodylate pH 7.2; 0.2 µM oligonucleotide, 2 µM compound
[13] = system: 24nonG4 (DNA, single strand) TGGGATGCGACAGAGAGGACGGGA; assay: native ESI-MS; conditions: 1 mM KCl; 100 mM TMAA; 10 µM oligonucleotide; no binding detected at 20 µM ligand
[14] = system: FtrypBT (FEBR1T) (DNA, G4) GGGCAGGGGGTGATGGGGAGGAGCCAGGG; assay: FRET melting; conditions: 10 mM KCl, 90 mM LiCl; 10 mM lithium cacodylate pH 7.2; 0.2 µM oligonucleotide, 2 µM compound
[15] = system: FdxT (DNA, hairpin, hexaethyleneglycol linker between position 10 and 11) TATAGCTATATATAGCTATA; assay: FRET melting; conditions: 10 mM KCl, 90 mM LiCl; 10 mM lithium cacodylate pH 7.2; 0.2 µM oligonucleotide, 2 µM compound
[16] = system: Plasmodium telomeric sequence FPf1T G-quadruplex; assay: FRET melting assay, FPf1T; format: binding, Plasmodium falciparum; conditions: compound 2 μM, oligonucleotide 0.2 μM, K+ conditions
Description: (§2) These were performed with dual-labeled oligonucleotides mimicking the Plasmodium telomeric sequences FPf1T [FAM-5′(GGGTTTA)3-GGG3′-TAMRA] and FPf8T [FAM-5′(GGGTTCA)3GGG3′-TAMRA], the Trypanosoma 9 and 11 chromosomic sequence FTrypBT (also named FEBR1T) [FAM-5′[…]3′-TAMRA], the human telomeric sequence F21T [FAM-(GGGTTA)3-GGG3′-TAMRA] and the human duplex sequence FdxT [FAM5′-[…]-hexaethyleneglycol-[…]3′-TAMRA] [27, 31, 47]. The oligonucleotides were pre-folded in 10 mM lithium cacodylate buffer (pH 7.2), with 10 mM KCl and 90 mM LiCl (K^+ condition). The FAM emissions were recorded at 516 nm using a 492-nm excitation wavelength in the absence and presence of a single compound as a function of temperature (25 to 95 °C) in 96-well microplates using a Stratagene MX3000P real-time PCR device at a rate of 1 °C∙min-1. Data were normalized between 0 and 1, and the required temperature for half-denaturation of oligonucleotides corresponding to the emission value of 0.5 was taken as the Tm. Each experiment was performed in duplicate with 0.2 µM of labeled oligonucleotide and 2 µM of compound under K^+ condition. For each compound, three independent experiments were carried out.

[17] = system: human telomeric sequence F21T G-quadruplex; assay: FRET melting assay, F21T; format: binding; conditions: compound 2 μM, oligonucleotide 0.2 μM, K+ conditions
Description: as §2

[18] = system: Plasmodium telomeric sequence FPf8T G-quadruplex; assay: FRET melting assay, FPf8T; format: binding, Plasmodium falciparum; conditions: compound 2 μM, oligonucleotide 0.2 μM, K+ conditions
Description: as §2

[19] = system: human duplex sequence FdxT; assay: FRET melting assay, duplex control FdxT; format: binding; conditions: compound 2 μM, oligonucleotide 0.2 μM, K+ conditions
Description: as §2

[20] = system: Trypanosoma 9 and 11 chromosomic sequence FTrypBT (FEBR1T) G-quadruplex; assay: FRET melting assay, FtrypBT; format: binding, Trypanosoma brucei brucei; conditions: compound 2 μM, oligonucleotide 0.2 μM, K+ conditions
Description: as §2

[21] = system: T. brucei brucei AnTat 1.9; assay: In vitro antitrypanosomal activity, Alamar Blue assay; format: cell-based, Trypanosoma brucei brucei; conditions: Trypanosoma brucei, slender bloodstream trypomastigotes, AnTat 1.9 strain; mean +/- SD of three independent experiments; read-out: Trypanosoma brucei brucei IC50 Values Trypanos Antat 1.9
Description: The effects of the tested compounds on the growth of T. brucei brucei were assessed using an Alamar Blue® assay described by Räz et al. T. brucei brucei AnTat 1.9 ([…], Belgium) was cultured in MEM with Earle's salts, supplemented according to the protocol of Baltz et al. […] All doses were tested in duplicate. Appropriate controls treated with solvents 0.9% NaCl or DMSO or with suramin, pentamidine, eflornithine, and fexinidazole (reference drugs purchased from Sigma Aldrich and Fluorochem, UK) were added to each set of experiments. After 69 h incubation period at 37 °C, 10 μL of the viability marker Alamar Blue (Fisher) was added to each well, and the plates were incubated for 5 h. The plates were read in a PerkinElmer ENSPIRE (Germany) microplate reader using an excitation wavelength of 530 nm and an emission wavelength of 590 nm.

[22] = Cytotoxicity evaluation, MTT assay; format: cell-based, human; conditions: human
Description: These cells are a commonly used human hepatocarcinoma-derived cell line that has characteristics similar to those of primary hepatocytes. These cells express many hepatocyte-specific metabolic enzymes, thus enabling the cytotoxicity of tested product metabolites to be evaluated. […] Duplicate assays were performed for each sample. Each well was microscopically examined for precipitate formation before the medium was aspirated from the wells. After aspiration, 100 µL of MTT solution (0.5 mg/mL in medium without FCS) were then added to each well. […] The MTT solution was removed, and DMSO (100 µL) was added to dissolve the resulting blue formazan crystals. Plates were shaken vigorously (300 rpm) for 5 min. The absorbance was measured at 570 nm with 630 nm as reference wavelength in a BIO-TEK ELx808 Absorbance Microplate Reader. DMSO was used as blank and doxorubicin (Sigma Aldrich) as positive control. Cell viability was calculated as percentage of control (cells incubated without compound). The CC50 was determined from the dose-response curve using TableCurve 2D V5.0 software (Systat Software, Palo Alto, CA, USA).

[23] = system: L. donovani (MHOM/IN/00/DEVI) promastigotes; assay: In vitro antileishmanial activity on promastigotes, MTT assay; format: cell-based; conditions: Leishmania donovani, 72 h incubation, mean +/- SD of three independent experiments
Description: L. donovani (MHOM/IN/00/DEVI) used in this study was provided by the CNR Leishmania (Montpellier, France). The effects of the tested compounds on the growth of L. donovani (MHOM/IN/00/DEVI) promastigotes were assessed by MTT assay. Briefly, promastigotes in log-phase in Schneider’s medium supplemented with 20% fetal calf serum (FCS), 2 mM L-glutamine and antibiotics (100 U/mL penicillin and 100 µg/mL streptomycin), were incubated at an average density of 10^6 parasites/mL in sterile 96-well plates with various concentrations of compounds previously dissolved in DMSO (final concentration less than 0.5% v/v), in duplicate. […] Duplicate assays were performed for each sample. After the 72 h incubation period at 27 °C, parasite metabolic activity was determined. Each well was microscopically examined for precipitate formation. To each well was added 10 µL of 10 mg/mL MTT [3-(4,5-dimethylthiazol-2-yl)-2,5-diphenyltetrazolium bromide)] solution followed by 4 h incubation time. The enzyme reaction was stopped by addition of 100 µL of 50% isopropanol/10% sodium dodecyl sulfate. Plates were vigorously shaken (300 rpm) for 10 min, and the absorbance was measured at 570 nm with 630 nm as reference wavelength in a BIOTEK ELx808 Absorbance Microplate Reader (Agilent Technologies, Les Ulis, France). […] IC50 of the parasite’s growth (half maximal inhibitory concentration or IC50 values) were then calculated from the obtained experimental results using a previously described regression program. IC50 values were calculated from three independent experiments.

[24] = no binding detected at 20 µM ligand
[25] = CQ-resistant strain W2, 48 h incubation, mean of three independent experiments
[26] = CQ-sensitive strain 3D7, 48 h incubation, mean of three independent experiments

CCN(CC)CCCC(C)Nc1ccnc2cc(Cl)ccc12 (centres unmarked) [CQ, chloroquine]
ΔTm FPf8T [1]: 2.4 °C | IC50 ([2]; W2, 48 h): 400 ± 40 nM | IC50 ([3]; 3D7, 48 h): 110 ± 10 nM | ΔTm FPf1T [4]: 1.9 °C | ΔTm F21T [5]: 2.4 °C

c1ccc(-c2cc(CNCCc3ccccn3)nc3c2ccc2c(-c4ccccc4)cc(CNCCc4ccccn4)nc23)cc1
ΔTm [6]: 1.3 ± 0.2 °C | binding [7, 24]: no | binding [8, 24]: no | ΔTm [9]: 1.0 ± 0.2 °C | Kd1 [10]: 83 µM | binding [11]: no | ΔTm [12]: 1.0 ± 0.5 °C | binding [13]: no | ΔTm [14]: 1.8 ± 0.6 °C

CN(C)CCCCNCc1cc(-c2ccccc2)c2ccc3c(-c4ccccc4)cc(CNCCCCN(C)C)nc3c2n1
Kd1 ([7]; site 1 of 2 (Kd2 28 µM)): 44 µM | Kd1 ([10]; site 1 of 2 (Kd2 50 µM)): 3 µM

CN(C)CCCCCNCc1cc(-c2ccccc2)c2ccc3c(-c4ccccc4)cc(CNCCCCCN(C)C)nc3c2n1
ΔTm [6]: 18.8 ± 0.2 °C | Kd1 ([7]; site 1 of 2 (Kd2 62 µM)): 38 µM | Kd1 ([8]; site 1 of 2 (Kd2 24 µM)): 8 µM | ΔTm [9]: 20.5 ± 0.2 °C | Kd1 ([10]; site 1 of 2 (Kd2 16 µM)): 3 µM | ΔTm [12]: 18.1 ± 0.9 °C | ΔTm [15]: 1.8 ± 0.2 °C | ΔTm [14]: 14.7 ± 0.7 °C

OC(c1cc(C(F)(F)F)nc2c(C(F)(F)F)cccc12)C1CCCCN1 (centres unmarked) [MQ, mefloquine]
ΔTm FPf8T [1]: 6.6 °C | IC50 [2, 25]: 16 ± 2 nM | IC50 [3, 26]: 60 ± 3 nM | ΔTm FPf1T [4]: 3.1 °C | ΔTm F21T [5]: 2.6 °C

CN1CCN(CCNCc2cc(-c3ccccc3)c3ccc4c(-c5ccccc5)cc(CNCCN5CCN(C)CC5)nc4c3n2)CC1 [Compound 1e]
IC50 [2, 25]: 920 ± 180 nM | ΔTm FPf1T [16]: 9.4 °C | ΔTm F21T [17]: 9.6 °C | ΔTm FPf8T [18]: 10.5 °C | ΔTm FdxT [19]: −1.6 °C | ΔTm FtrypBT [20]: 8.0 °C | IC50 [3, 26]: 2160 ± 320 nM | IC50 [21]: 450 ± 30 nM | CC50 at 72 h [22]: 10500 ± 1270 nM | IC50 [23]: > 12500 nM

c1ccc(-c2cc(CNCCCN3CCCC3)nc3c2ccc2c(-c4ccccc4)cc(CNCCCN4CCCC4)nc23)cc1
Kd1 ([7]; site 1 of 2 (Kd2 18 µM)): 34 µM | Kd1 ([8]; site 1 of 2 (Kd2 37 µM)): 10 µM | Kd1 ([10]; site 1 of 2 (Kd2 59 µM)): 2 µM | ΔTm [15]: 0.7 ± 0.2 °C

c1ccc(-c2cc(CNCCCc3ccncc3)nc3c2ccc2c(-c4ccccc4)cc(CNCCCc4ccncc4)nc23)cc1 [Compound 1p]
IC50 [2, 25]: 145 ± 40 nM | ΔTm FPf1T [16]: 3.5 °C | ΔTm F21T [17]: 3.6 °C | ΔTm FPf8T [18]: 3.9 °C | ΔTm FdxT [19]: −1.1 °C | ΔTm FtrypBT [20]: 3.7 °C | IC50 [3, 26]: 1020 ± 350 nM | IC50 [21]: 650 ± 50 nM | CC50 at 72 h [22]: 3040 ± 190 nM | IC50 [23]: > 12500 nM
